Test results taken from publication PMC4767442 (Oncotarget, 2015).

Legend:
MCF-7 cells [1] = assay: 59Fe mobilization from cells prelabeled with 59Fe-transferrin; assay type: cell-based, human; settings: MCF-7 prelabeled with 59Fe-transferrin, compounds 25 μmol·L^−1, 3 h/37°C
Method: (§1) Iron chelation efficiency of the compounds at a concentration of 10 μmol·L^−1 was determined via 3 methods: (1) the calcein assay; (2) the ability of the ligands to induce ^59Fe mobilization from cells prelabeled with ^59Fe-transferrin; and (3) the efficacy of these agents to inhibit the uptake of ^59Fe from ^59Fe-transferrin [22, 38–40].
(§2) The fluorimetric calcein-AM assay was performed by established methods, as described previously. The Fe chelation efficiency of the metabolites in cells was expressed as a percentage of that of the parent chelator, Dp44mT or DpC (100%). For studies assessing the ability of these agents to induce ^59Fe mobilization and inhibit ^59Fe uptake from ^59Fe-transferrin by cells, human transferrin (Sigma-Aldrich, Germany) was labeled with ^59Fe (PerkinElmer, MA, USA) to generate ^59Fe-transferrin at a final specific activity of 500 pCi/pmol Fe, as previously described. The unbound ^59Fe was removed by exhaustive vacuum dialysis against a large excess of 0.15 M NaCl buffered to pH 7.4 with 1.4% NaHCO3 by standard methods.
(§3) To examine the ability of the studied substances to mobilize ^59Fe from MCF-7 cells or inhibit ^59Fe uptake from ^59Fe-transferrin, established techniques were utilized. For ^59Fe mobilization studies, cells were preincubated with ^59Fe-transferrin (0.75 μmol·L^−1) for 3 h/37°C, washed 4 times at 4°C on ice, and then reincubated with control medium or control medium containing the compounds (25 μmol·L^−1) for 3 h/37°C. The release of ^59Fe from the cells into the overlying medium was then examined by collecting both the cells and overlying medium and assessing ^59Fe levels using a γ-counter. For studies examining the ability of the agents to inhibit ^59Fe uptake from ^59Fe-transferrin, cells were incubated for 3 h/37°C with ^59Fe-transferrin (0.75 μmol·L^−1) in the presence or absence of the agents (25 μmol·L^−1), and then washed 4 times at 4°C on ice. The internalization of ^59Fe by cells was then assessed by incubation for 30 min/4°C with the general protease, Pronase (1 mg/mL), utilizing standard techniques. The amount of internalized ^59Fe in the presence of the agents was expressed as a percentage of ^59Fe internalized by control cells incubated in the presence of control media alone.

[2] = system: 3T3 mouse embryo fibroblast line; assay: MTT proliferation/viability assay, 3T3; assay type: cell-based; settings: 72 h/37°C, mean ± S.D., serum- and pyruvate-free DMEM
Method: (§4) The MCF-7 human breast adenocarcinoma cell line was purchased from the European Collection of Cell Cultures (U.K.). The HL-60 human promyelocytic leukemia cell line, HCT116 human colorectal carcinoma cell line, H9c2 rat heart-derived myoblast cell line and 3T3 mouse embryo fibroblast line, were obtained from the American Type Culture Collection (VA, U.S.A.). Cells were cultured in Dulbecco's modified Eagle's medium (DMEM, Lonza, Switzerland) with or without (for MCF-7 cells only) phenol red, supplemented with 10% heat-inactivated fetal bovine serum (FBS; Lonza, Switzerland), 1% penicillin/streptomycin solution (Lonza, Switzerland) and 10 mM HEPES buffer (pH 7.0-7.6; Sigma-Aldrich, Germany). The HL-60 cell line was maintained in RPMI medium (Sigma-Aldrich, Germany) supplemented with 10% heat-inactivated FBS and 1% penicillin/streptomycin solution. All cell lines were cultured in 75 cm^2 tissue culture flasks (Switzerland) at 37°C in a humidified atmosphere of 5% CO2. Sub-confluent cells or, in the case of HL-60 cells, a cell suspension, were sub-cultured every 3-4 days.
(§5) Cells were seeded in 96-well plates for 24 h/37°C at a density of 5,000 (MCF-7), 10,000 (HL-60), 2,000 (HCT116) and 10,000 (3T3 and H9c2) cells/well. For 3T3 and H9c2 cells, the medium was changed to serum- and pyruvate-free DMEM 24 h prior to the experiments. Anti-proliferative and cytotoxicity effects of the compounds were studied at different concentrations after incubations for 72 h/37°C. Viabilities of cells were determined using MTT assays (Sigma-Aldrich, Germany) according to the manufacturer's instructions on a Tecan Infinite 200M plate reader (Tecan, Austria). The proliferation/viability of treated groups was expressed as a percentage of the untreated controls (100%).

[3] = system: H9c2 rat heart-derived myoblast cell line; assay: MTT proliferation/viability assay, H9c2; assay type: cell-based; settings: 72 h/37°C, mean ± S.D., serum- and pyruvate-free DMEM
Method: as §4, §5

[4] = system: MCF-7 human breast adenocarcinoma cell line; assay: MTT proliferation/viability assay, MCF-7; assay type: cell-based; settings: MCF7, 72 h/37°C, mean ± S.D.
Method: as §4, §5

[5] = system: HL-60 human promyelocytic leukemia cell line; assay: MTT proliferation/viability assay, HL-60; assay type: cell-based; settings: 72 h/37°C, mean ± S.D.
Method: as §4, §5

MCF-7 cells [6] = assay: Inhibition of internalized 59Fe uptake from 59Fe-transferrin; assay type: cell-based, human; settings: MCF-7, compounds 25 μmol·L^−1, 3 h/37°C
Method: as §1, §2, §3

[7] = system: cellular labile iron pools; assay: Fluorimetric calcein-AM assay of intracellular iron chelation; assay type: cell-based; settings: 10 μmol·L^−1
Method: as §1, §2

[8] = system: HCT116 human colorectal carcinoma cell line; assay: MTT proliferation/viability assay, HCT116; assay type: cell-based; settings: HCT-116, 72 h/37°C, mean ± S.D.
Method: as §4, §5

[9] = Pharmacokinetics after single i.v. administration to rats (plasma, UHPLC-MS/MS); assay type: in vivo, Wistar rats
Method: Male Wistar rats (230-310 g; n = 22) obtained from Velaz (Czech Republic) were kept in an air-conditioned room under a 12 h light-dark cycle, constant temperature and humidity and had free access to water and a standard laboratory pellet diet for rodents. All animal handling and procedures were approved and supervised by the Animal Welfare Body of the Faculty of Medicine in Hradec Kralove, Charles University in Prague. The investigation conformed to the Guide for the Care and Use of Laboratory Animals.
The rats were anaesthetized with pentobarbital (30 mg^.kg^−1; i.p.) and then the vena jugularis and arteria carotis were prepared for drug administration and blood sample collection, respectively. Both Dp44mT and DpC were dissolved in a mixture of saline, PEG 300 and ethanol (5:4:1, v/v/v) and administered to rats at a dose of 2 mg^.kg^−1, as a slow i.v. bolus. Blood was then collected into EDTA-containing tubes, immediately centrifuged and the plasma kept at −80°C until being analyzed. The blood withdrawn from animals was compensated with an appropriate volume of saline. The animals were sacrificed by pentobarbital overdose.
Initially, for both compounds, rats (n = 2, in each group) were used for the in-vivo investigation of the thiosemicarbazone metabolites and also the preparation of the quantitative analytical method. For the full PK study, 6 rats were used for each compound (group 1) and the blood was sampled at 4, 10, 30, 60, 120, 240 and 360 min post-administration.
Due to the markedly slower elimination of DpC, an additional in-vivo study was performed to appropriately describe the elimination phase of this drug. The conscious rats (n = 8, group 2) were administered DpC (2 mg^.kg^−1) via slow i.v. bolus to the vena saphena. Blood was sampled from the retro-orbital plexus under light ether anesthesia during the following time intervals: 120, 360, 600, 1440 and 1800 min. Plasma samples were treated and analyzed using the analytical methods described below in the Section: UHPLC-MS/MS methods for quantitative assay of the drugs and their metabolites.
Standard non-compartmental analysis was performed implementing Kinetica software (version 4.0, Thermo Fisher Scientific Inc., MA, U.S.A.). […] Maximum concentration (Cmax) and the time to maximum concentration (Tmax) were determined directly from the geometric mean vs. time profiles and from individual profiles. The area under the mean plasma concentration–time curve from zero up to the last sampling interval (AUC0-tlast) was calculated by a combination of the linear and log-linear trapezoidal methods. The area under the mean plasma concentration–time curve from zero up to infinity (AUC) was determined as the sum of the AUC0–tlast and of the extrapolated part (i.e., the ratio of the concentration predicted at the time interval of tlast and the terminal rate constant, λz). The λz was estimated by linear regression of the log transformed concentrations in the terminal part of the curve.
Population pharmacokinetic modeling was performed using non-linear, mixed effect modeling as implemented in Monolix, version 4 (http://wfn.software.monolix.org). Pharmacokinetic parameters were estimated by computing the maximum likelihood estimator of the parameters without any approximation of the model (no linearization). This was performed using the Stochastic Approximation Expectation Maximization (SAEM) algorithm combined with a Markov chain Monte Carlo procedure. The between-animal variability in model parameters were ascribed to an exponential model and a proportional model was used to describe the residual variability. The goodness-of-fit was assessed by using several diagnostic plots (observed and predicted concentrations vs. time; observed concentrations vs. population predictions; weighted residuals vs. time; and weighted residuals vs. predictions). Individual parameter values were obtained as empirical Bayes estimates. […]

[10] = Post-preparative stability in the autosampler at 10°C; assay type: physicochemical; settings: for Post-preparative stability: autosampler 10°C, 24 h
Method: (§6) The UHPLC-MS/MS methods for quantitative assays were validated with respect to selectivity, linearity, precision, accuracy, stability, recovery, matrix effects and dilution integrity (see […]
Supplementary Table 1-3). […]
(§7) Stability was assessed at low, medium and high concentration levels. Long -term stability was assessed for plasma samples at -80°C over a period of 7 days (three aliquots per level; Supplementary Table 3). […]

[11] = Long-term stability in plasma samples at -80°C; assay type: in vitro ADME, rat; settings: for Long-term stability: plasma, -80°C, 7 days
Method: as §6
Linearity was examined over the concentration ranges described in Supplementary Table 1 using a weighted (1/x 2) linear regression in GraphPad Prism 6 (v. 6.04, GraphPad Software […]
as §7

[12] = high concentration level (2.105-3.115 µmol·L-1)
[13] = low concentration level (0.035-0.156 µmol·L-1)
[14] = medium concentration level (0.702-1.558 µmol·L-1)

CN(C)C(=O)NN=C(c1ccccn1)c1ccccn1 [Dp44mS, di(2-pyridyl)ketone 4,4-dimethylsemicarbazone]
59Fe mobilization (in words) (MCF-7 cells [1]): approximately half as effective as Dp44mT
IC50 [2]: 139 ± 28.9 µM
IC50 [3]: 367 ± 63.4 µM
IC50 [4]: 29.4 ± 8.63 µM
IC50 [5]: 27.3 ± 3.56 µM
internalized 59Fe uptake from 59Fe-transferrin, % of the control (MCF-7 cells [6]): 64%
intracellular Fe chelation efficacy (in words) [7]: lower ability to bind intracellular Fe than their parent ligands
IC50 [8]: 9.31 ± 1.58 µM

O=C(c1ccccn1)c1ccccn1 [DpK, di(2-pyridyl)ketone]
59Fe mobilization (in words) (MCF-7 cells [1]): no greater than the control
IC50 [2]: > 1000 µM
IC50 [3]: > 1000 µM
IC50 [4]: > 1000 µM
IC50 [5]: > 1000 µM
inhibition of 59Fe uptake from 59Fe-transferrin (in words) (MCF-7 cells [6]): did not have any significant (p>0.05) effect
intracellular Fe chelation efficacy (in words) [7]: lower ability to bind intracellular Fe than their parent ligands
IC50 [8]: > 1000 µM

CN(C(=O)NN=C(c1ccccn1)c1ccccn1)C1CCCCC1 [DpC-S, di(2-pyridyl)ketone 4-cyclohexyl-4-methylsemicarbazone]
59Fe mobilization (in words) (MCF-7 cells [1]): comparable to DpC
IC50 [2]: 12.8 ± 2.87 µM
IC50 [3]: 5.59 ± 0.82 µM
IC50 [4]: 3 ± 0.81 µM
IC50 [5]: 2.57 ± 0.33 µM
inhibition of 59Fe uptake from 59Fe-transferrin (in words) (MCF-7 cells [6]): marked and similar to DpC
intracellular Fe chelation efficacy (in words) [7]: lower ability to bind intracellular Fe than their parent ligands
IC50 [8]: 3.03 ± 0.91 µM

CNC(=S)NN=C(c1ccccn1)c1ccccn1 [Dp4mT, di(2-pyridyl)ketone 4-methyl-3-thiosemicarbazone]
Cmax ([9]; male, Wistar, rat, plasma, iv, 2 mg/kg, rats, i.v. 2 mg·kg^−1, non-compartmental analysis of geometric mean plasma curves, Dp4mT = metabolite after Dp44mT dosing, read-out: Cmax): 496 nM
Tmax ([9]; male, Wistar, rat, plasma, iv, 2 mg/kg, rats, i.v. 2 mg·kg^−1, non-compartmental analysis, Dp4mT = metabolite after Dp44mT dosing, read-out: Tmax (converted)): 10 min
AUC(0-inf) ([9]; male, Wistar, rat, plasma, iv, 2 mg/kg, rats, i.v. 2 mg·kg^−1, non-compartmental analysis, read-out: AUC (zero to infinity)): 0.748 µM·h
half-life ([9]; male, Wistar, rat, plasma, iv, 2 mg/kg, rats, i.v. 2 mg·kg^−1, non-compartmental analysis, read-out: t1/2 (elimination half-life) (converted)): 120 min
AUC(0-t) ([9]; male, Wistar, rat, plasma, iv, 2 mg/kg, read-out: AUC0-tlast): 0.671 µM·h
lamdaz (terminal rate constant of elimination) ([9]; rats, i.v. 2 mg·kg^−1, non-compartmental analysis): 0.346 h⁻¹
decomposition on storage (in words) ([10]; 24 h storage in the autosampler at 10°C): No significant decomposition
Post-preparative stability [10, 12]: 95.44%
Post-preparative stability [10, 13]: 100.24%
Post-preparative stability [10, 14]: 111.72%
Long-term stability [11, 12]: 90.82%
Long-term stability [11, 13]: 94.78%
Long-term stability [11, 14]: 90.83%
decomposition on storage (in words) ([11]; up to 7 days stored at −80°C): No significant decomposition
